ChEMBL document CHEMBL4184192, “5-HT1A and 5-HT2A receptors affinity, docking studies and pharmacological evaluation of a series of 8-acetyl-7-hydroxy-4-methylcoumarin derivatives” (Bioorg Med Chem, 2018)
pEC50, pKi: −log10 of the molar value. Activity calls are given as the source filed them. The calls are words filed in the database; no cut-off is given here.

Key:
[1] = test system: Mus musculus; assay: Antidepressant activity in Balb/c mouse assessed as decrease in immobility time administered ip 30 mins prior to test measured for 6 mins by tail suspension test; assay type: functional, organism-based
[2] = target: T1, 5-hydroxytryptamine receptor 1A (Homo sapiens, UniProt P08908); assay: Displacement of [3H]-8-OH-DPAT from human 5-HT1A receptor expressed in CHO-K1 cell membranes after 60 mins by microbeta scintillation counting analysis
T1 sequence (P08908 whole entry): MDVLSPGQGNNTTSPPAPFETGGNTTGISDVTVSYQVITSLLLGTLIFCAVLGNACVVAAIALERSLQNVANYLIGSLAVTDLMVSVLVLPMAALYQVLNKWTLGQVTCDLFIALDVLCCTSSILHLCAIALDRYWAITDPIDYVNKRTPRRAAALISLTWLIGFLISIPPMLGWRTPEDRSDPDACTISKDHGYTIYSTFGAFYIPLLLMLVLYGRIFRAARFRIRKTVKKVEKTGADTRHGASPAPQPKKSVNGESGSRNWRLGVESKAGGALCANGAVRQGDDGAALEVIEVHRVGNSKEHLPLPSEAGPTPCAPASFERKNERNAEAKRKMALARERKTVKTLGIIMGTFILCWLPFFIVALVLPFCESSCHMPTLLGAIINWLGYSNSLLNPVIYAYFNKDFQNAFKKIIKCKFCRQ

[3] = target: 5-hydroxytryptamine receptor 2A (Homo sapiens, UniProt P28223); assay: Displacement of [3H]-ketanserin from human 5-HT2A receptor expressed in CHO-K1 cell membranes after 60 mins by microbeta scintillation counting analysis; assay type: cell-based
5-hydroxytryptamine receptor 2A, sequence (P28223 whole entry): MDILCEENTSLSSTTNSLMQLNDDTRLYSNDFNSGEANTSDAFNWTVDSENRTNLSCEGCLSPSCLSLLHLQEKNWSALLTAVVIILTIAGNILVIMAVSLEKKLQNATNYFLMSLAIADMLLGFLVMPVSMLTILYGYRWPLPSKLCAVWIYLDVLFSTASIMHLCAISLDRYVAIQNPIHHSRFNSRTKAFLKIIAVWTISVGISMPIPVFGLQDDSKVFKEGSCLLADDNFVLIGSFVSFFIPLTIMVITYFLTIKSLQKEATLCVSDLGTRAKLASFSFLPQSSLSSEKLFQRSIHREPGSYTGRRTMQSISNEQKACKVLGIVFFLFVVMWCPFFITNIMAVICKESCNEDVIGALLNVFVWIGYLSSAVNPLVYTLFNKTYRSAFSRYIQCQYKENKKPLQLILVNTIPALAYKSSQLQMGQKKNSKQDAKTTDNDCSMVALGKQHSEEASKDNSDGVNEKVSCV

[4] = target: T2, 5-hydroxytryptamine receptor 1A (Rattus norvegicus) (UniProt P19327); assay: Agonist activity at 5-HT1A receptor in Sprague-Dawley rat hippocampal membranes at 10^-10 to 10^-5 M after 90 mins by microbeta scintillation counting based [35S]GTPgammaS binding assay relative to control; assay type: functional
T2 sequence (whole entry): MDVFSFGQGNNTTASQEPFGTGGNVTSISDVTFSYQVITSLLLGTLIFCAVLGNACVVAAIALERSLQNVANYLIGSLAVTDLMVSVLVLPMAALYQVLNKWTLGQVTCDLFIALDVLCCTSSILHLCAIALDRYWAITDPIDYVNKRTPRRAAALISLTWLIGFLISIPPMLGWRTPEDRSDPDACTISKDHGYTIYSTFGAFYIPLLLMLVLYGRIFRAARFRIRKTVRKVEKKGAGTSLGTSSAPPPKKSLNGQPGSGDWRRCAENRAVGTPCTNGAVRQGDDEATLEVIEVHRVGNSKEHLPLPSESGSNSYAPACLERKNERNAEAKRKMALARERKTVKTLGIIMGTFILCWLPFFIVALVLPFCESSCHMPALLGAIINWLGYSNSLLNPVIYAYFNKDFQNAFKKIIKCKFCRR

[5] = target: T3, 5-hydroxytryptamine receptor 1A (Rattus norvegicus, UniProt P19327); assay: Agonist activity at 5-HT1A receptor in Sprague-Dawley rat hippocampal membranes after 90 mins by microbeta scintillation counting based [35S]GTPgammaS binding assay; assay type: functional
T3 sequence (P19327 whole entry): T2 sequence (whole entry)

[6] = target: T2, 5-hydroxytryptamine receptor 1A (Rattus norvegicus); assay: Antagonist activity at 5-HT1A receptor in Sprague-Dawley rat hippocampal membranes assessed as inhibition of 8-OH-DPAT-induced receptor activation at 10^-10 to 10^-5 M after 90 mins by microbeta scintillation counting based [35S]GTPgammaS binding assay relative to control; assay type: functional
[7] = target: T3, 5-hydroxytryptamine receptor 1A; assay: Antagonist activity at 5-HT1A receptor in Sprague-Dawley rat hippocampal membranes assessed as inhibition of 8-OH-DPAT-induced receptor activation after 90 mins by microbeta scintillation counting based [35S]GTPgammaS binding assay; assay type: functional
[8] = test system: Mus musculus; assay: Toxicity in Balb/c mouse assessed as alterations in despair-related locomotor activity at 0.3 to 10 mg/kg, ip administered 30 mins prior to test; assay type: organism-based; details: in vivo, 0.5 h
[9] = test system: Mus musculus; assay: Toxicity in Balb/c mouse assessed as alterations in visible locomotor activity at 0.3 to 10 mg/kg, ip administered 30 mins prior to test; assay type: organism-based; details: in vivo, 0.5 h
[10] = test system: Mus musculus; assay: Pro-depressant activity in Balb/c mouse assessed as decrease in immobility time administered ip 30 mins prior to test measured for 6 mins by tail suspension test; assay type: ADME, organism-based; details: in vivo, 0.1 h
[11] = test system: Mus musculus; assay: Antidepressant activity in Balb/c mouse assessed as decrease in immobility time at 0.3 to 1 mg/kg, ip administered 30 mins prior to test measured for 6 mins by tail suspension test; assay type: functional, organism-based
[12] = test system: Mus musculus; assay: Pro-depressant activity in Balb/c mouse assessed as decrease in immobility time at 3 to 10 mg/kg, ip administered 30 mins prior to test measured for 6 mins by tail suspension test; assay type: ADME, organism-based; details: in vivo, 0.1 h
[13] = species on record: Mus musculus; assay: Pro-depressant activity in Balb/c mouse assessed as decrease in home cage activity; assay type: ADME, organism-based; details: in vivo

Row | Structure (SMILES) | pKi [2] | pKi [3] | further results
1 | CNCCC(Oc1ccc(C(F)(F)F)cc1)c1ccccc1 (configuration not stated) | – | – | Activity [1]: Dose-dependent effect
2 | CC(=O)c1c(OCCCCN2CCN(c3ccccc3C(F)(F)F)CC2)ccc2c(C)cc(=O)oc12 | 7.96 | 7.31 | –
3 | CC(=O)c1c(OCCCCN2CCN(c3cccc(F)c3)CC2)ccc2c(C)cc(=O)oc12 | 7.30 | 6.40 | –
4 | CC(=O)c1c(OCCCN2CCN(c3cc(C)cc(C)c3)CC2)ccc2c(C)cc(=O)oc12 | 9.05 | 7.90 | –
5 | CC(=O)c1c(OCCCCN2CCN(c3ccccc3Cl)CC2)ccc2c(C)cc(=O)oc12 | 9.05 | 7.70 | –
6 | COc1ccccc1N1CCN(CCCCOc2ccc3c(C)cc(=O)oc3c2C(C)=O)CC1 | 9.00 | 7.25 | –
7 | CC(=O)c1c(OCCCCN2CCN(c3cc(C)cc(C)c3)CC2)ccc2c(C)cc(=O)oc12 | 8.43 | 7.24 | –
8 | COc1ccccc1N1CCN(CCCOc2ccc3c(C)cc(=O)oc3c2C(C)=O)CC1 | 9.22 | 8.10 | Emax [4]: 108%; pEC50 [5]: 8.70; inhibition [6]: 70%; pEC50 [7]: 6.20; Activity [8]: Non-Toxic; Activity [9]: Non-Toxic
9 | CC(=O)c1c(OCCCN2CCN(c3cccc(Br)c3)CC2)ccc2c(C)cc(=O)oc12 | 8.46 | 8.22 | –
10 | CC(=O)c1c(OCCCN2CCN(c3cc(C)ccc3C)CC2)ccc2c(C)cc(=O)oc12 | 7.85 | 6.99 | –
11 | CC(=O)c1c(OCCCN2CCN(c3ccccc3Cl)CC2)ccc2c(C)cc(=O)oc12 | 8.70 | 7.66 | –
12 | CC(=O)c1c(OCCCN2CCN(c3cccc(F)c3)CC2)ccc2c(C)cc(=O)oc12 | 5.87 | 6.39 | –
13 | CC(=O)c1c(OCCCN2CCN(c3ccccc3C(F)(F)F)CC2)ccc2c(C)cc(=O)oc12 | 8.06 | 7.70 | –
14 | CC(=O)c1c(OCCCN2CCN(c3ccccc3Br)CC2)ccc2c(C)cc(=O)oc12 | 9.30 | 8.15 | Emax [4]: 112%; pEC50 [5]: 7.40; inhibition [6]: 82%; pEC50 [7]: 6.90; Activity [10]: Dose-dependent effect; Activity [11]: inactive; Activity [12]: Toxic; Activity [13]: Toxic
15 | CC(=O)c1c(OCCCCN2CCN(c3cccc(Br)c3)CC2)ccc2c(C)cc(=O)oc12 | 8.60 | 8.19 | –
16 | CC(=O)c1c(OCCCCN2CCN(c3ccccc3Br)CC2)ccc2c(C)cc(=O)oc12 | 8.82 | 8.00 | –
17 | CC(=O)c1c(OCCCCN2CCN(c3cc(C)ccc3C)CC2)ccc2c(C)cc(=O)oc12 | 8.27 | 7.33 | –
